Each block holds one compound with its values, some of them ahead of it.
Biological target: T1, CFTR (primary human bronchial epithelial cells from a ΔF508 homozygous CF donor, CF-HBE cells) (Homo sapiens, UniProt P13569, DEL508-508)
T1 construct: Primary human bronchial epithelial cells from a ΔF508 homozygous CF donor; host or cells: primary human bronchial epithelial cells (CF-HBE) from a ΔF508 homozygous CF donor
Test: TECC24 recording of CFTR-mediated transepithelial chloride transport (TECC24 AUC fold over DMSO @ 3 μM)
Format: cell-based
Conditions: 3 uM test agent; CF-HBE cells (ΔF508 homozygous) incubated 48 h; ratio of test agent AUC of forskolin-stimulated IEQ to vehicle (DMSO) AUC
Outline: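 ΔF508-homozygous CF-HBE cells incubated 48 h at 36.5° C with test agent (3 μM) in IL-13-containing medium, then recorded in current clamp with benzamil (10 μM), forskolin (10 μM) and bumetanide (20 μM). AUC of equivalent Cl− current between forskolin and bumetanide expressed as fold over DMSO vehicle.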

T1 sequence (P13569 with tags, fused parts or gaps DEL508-508): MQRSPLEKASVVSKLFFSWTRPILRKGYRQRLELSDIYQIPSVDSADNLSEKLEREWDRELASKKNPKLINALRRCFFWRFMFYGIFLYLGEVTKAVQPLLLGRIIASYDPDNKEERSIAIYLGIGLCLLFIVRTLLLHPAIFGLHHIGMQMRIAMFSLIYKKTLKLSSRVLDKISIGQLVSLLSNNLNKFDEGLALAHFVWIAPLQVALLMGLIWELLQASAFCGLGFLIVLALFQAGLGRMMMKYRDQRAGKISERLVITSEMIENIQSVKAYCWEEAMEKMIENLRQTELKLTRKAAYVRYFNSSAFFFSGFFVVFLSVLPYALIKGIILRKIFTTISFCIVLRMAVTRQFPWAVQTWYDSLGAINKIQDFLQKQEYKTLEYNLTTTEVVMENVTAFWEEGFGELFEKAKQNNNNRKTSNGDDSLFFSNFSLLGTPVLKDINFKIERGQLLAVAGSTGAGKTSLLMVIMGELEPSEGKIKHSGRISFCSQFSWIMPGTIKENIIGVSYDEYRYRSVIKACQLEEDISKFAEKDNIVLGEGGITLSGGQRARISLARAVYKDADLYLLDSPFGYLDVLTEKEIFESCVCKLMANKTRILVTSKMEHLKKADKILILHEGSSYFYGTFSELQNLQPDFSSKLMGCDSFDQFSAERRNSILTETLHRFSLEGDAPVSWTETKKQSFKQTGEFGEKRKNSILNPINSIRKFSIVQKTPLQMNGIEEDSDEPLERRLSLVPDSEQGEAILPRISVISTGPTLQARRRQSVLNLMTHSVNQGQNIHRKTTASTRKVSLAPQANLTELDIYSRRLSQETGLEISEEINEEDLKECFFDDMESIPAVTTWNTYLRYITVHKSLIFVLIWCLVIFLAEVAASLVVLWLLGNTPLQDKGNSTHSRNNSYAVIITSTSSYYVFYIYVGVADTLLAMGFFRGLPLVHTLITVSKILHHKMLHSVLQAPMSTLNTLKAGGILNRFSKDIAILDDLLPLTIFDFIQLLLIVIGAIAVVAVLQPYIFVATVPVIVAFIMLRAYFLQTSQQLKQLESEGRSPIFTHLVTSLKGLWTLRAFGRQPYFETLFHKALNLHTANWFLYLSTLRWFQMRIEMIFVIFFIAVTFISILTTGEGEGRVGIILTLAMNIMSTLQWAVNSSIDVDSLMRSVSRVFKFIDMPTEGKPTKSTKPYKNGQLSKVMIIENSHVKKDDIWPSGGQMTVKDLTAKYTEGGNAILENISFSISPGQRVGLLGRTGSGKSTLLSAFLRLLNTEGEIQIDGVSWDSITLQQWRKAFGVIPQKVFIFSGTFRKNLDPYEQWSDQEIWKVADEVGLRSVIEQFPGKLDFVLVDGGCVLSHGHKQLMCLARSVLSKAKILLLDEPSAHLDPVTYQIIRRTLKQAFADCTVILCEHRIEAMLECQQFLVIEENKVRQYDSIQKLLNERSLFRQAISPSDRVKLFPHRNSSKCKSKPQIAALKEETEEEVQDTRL

TECC AUC vs. DMSO @ 3 uM: A (“A” refers to AUC > 5)
SMILES: CC(C)c1ccccc1-c1nc(NS(=O)(=O)c2cccc(N)n2)sc1N1CCOC2(CCC(C)(C)C2)C1 (stereo not shown) [Example 349, 6-amino-N-[5-(3,3-dimethyl-6-oxa-9-azaspiro[4.5]decan-9-yl)-4-(2-propan-2-ylphenyl)-1,3-thiazol-2-yl]pyridine-2-sulfonamide]

TECC AUC vs. DMSO @ 3 uM: A (“A” refers to AUC > 5)
SMILES: CC(C)Oc1cc(Cl)ccc1-c1nc(NS(=O)(=O)c2cccc(N)c2F)sc1-c1cccc(OCC(F)(F)C(C)(C)C)c1 [Example 382]

TECC AUC vs. DMSO @ 3 uM: A (“A” refers to AUC > 5)
SMILES: Cc1cccc(C)c1-c1nc(NS(=O)(=O)c2ccccc2)sc1N1C[C@H](OC(C)(C)C)C[C@H]1C [Example 402, N-[4-(2,6-dimethylphenyl)-5-[(2R,4R)-2-methyl-4-[(2-methylpropan-2-yl)oxy]pyrrolidin-1-yl]-1,3-thiazol-2-yl]benzenesulfonamide]

TECC AUC vs. DMSO @ 3 uM: A (“A” refers to AUC > 5)
SMILES: CC(C)c1ccccc1-c1nc(NS(=O)(=O)c2cccc(N[C@H](C)C(F)(F)F)c2)sc1-c1cccc(OCC(C)(C)C)c1 [Example 429, N-[5-[3-(2,2-dimethylpropoxy)phenyl]-4-(2-propan-2-ylphenyl)-1,3-thiazol-2-yl]-3-[[(2R)-1,1,1-trifluoropropan-2-yl]amino]benzenesulfonamide]

TECC AUC vs. DMSO @ 3 uM: B (“B” refers to AUC 2-5)
SMILES: CC(C)c1ccccc1-c1nc(NS(=O)(=O)c2cccc(NC(C)C(F)(F)F)c2)sc1-n1ccc(OCC(C)(C)C(F)(F)F)n1 (stereo not shown) [Example 471, N-[4-(2-propan-2-ylphenyl)-5-[3-(3,3,3-trifluoro-2,2-dimethylpropoxy)pyrazol-1-yl]-1,3-thiazol-2-yl]-3-(1,1,1-trifluoropropan-2-ylamino)benzenesulfonamide]

More lines, now with the values behind:

SMILES: Cc1cccc(C)c1-c1nc(NS(=O)(=O)c2cccc(N(C)C)n2)sc1-c1cccc(OCCC(C)(C)C)c1 [Example 334, 6-(dimethylamino)-N-[5-[3-(3,3-dimethylbutoxy)phenyl]-4-(2,6-dimethylphenyl)-1,3-thiazol-2-yl]pyridine-2-sulfonamide]
TECC AUC vs. DMSO @ 3 uM: A (“A” refers to AUC > 5)

SMILES: Cc1cccc(C)c1-c1nc(NS(=O)(=O)c2cccc(N(C)C)n2)sc1-c1cccc(C2CCC(C)(C)C2)c1 (stereo not shown) [Example 342, 6-(dimethylamino)-N-[5-[3-(3,3-dimethylcyclopentyl)phenyl]-4-(2,6-dimethylphenyl)-1,3-thiazol-2-yl]pyridine-2-sulfonamide]
TECC AUC vs. DMSO @ 3 uM: A (“A” refers to AUC > 5)

SMILES: Cc1cccc(C)c1-c1nc(NS(=O)(=O)c2cccc(N(C)C)n2)sc1-c1cccc(OC2CCC(C)(C)C2)c1 (stereo not shown) [Example 358, 6-(dimethylamino)-N-[5-[3-(3,3-dimethylcyclopentyl)oxyphenyl]-4-(2,6-dimethylphenyl)-1,3-thiazol-2-yl]pyridine-2-sulfonamide]
TECC AUC vs. DMSO @ 3 uM: A (“A” refers to AUC > 5)

SMILES: CC(C)c1ccccc1-c1nc(NS(=O)(=O)c2ccnc(N)c2)sc1-c1cccc(OCCC(C)(C)C)c1 [Example 362, 2-amino-N-[5-[3-(3,3-dimethylbutoxy)phenyl]-4-(2-propan-2-ylphenyl)-1,3-thiazol-2-yl]pyridine-4-sulfonamide]
TECC AUC vs. DMSO @ 3 uM: A (“A” refers to AUC > 5)

SMILES: Cc1cccc(C)c1-c1nc(NS(=O)(=O)c2ccccc2)sc1C1=CC(CC(C)(C)C)OCC1 (stereo not shown) [Example 370, N-[4-(2,6-dimethylphenyl)-5-[6-(2,2-dimethylpropyl)-3,6-dihydro-2H-pyran-4-yl]-1,3-thiazol-2-yl]benzenesulfonamide]
TECC AUC vs. DMSO @ 3 uM: A (“A” refers to AUC > 5)

SMILES: CC(C)Oc1cc(Cl)ccc1-c1nc(NS(=O)(=O)c2ccccc2)sc1-c1ccc(OC(F)F)c(OCCC(C)(C)C)c1 [Example 380, N-[4-(4-chloro-2-propan-2-yloxyphenyl)-5-[4-(difluoromethoxy)-3-(3,3-dimethylbutoxy)phenyl]-1,3-thiazol-2-yl]benzenesulfonamide]
TECC AUC vs. DMSO @ 3 uM: A (“A” refers to AUC > 5)

SMILES: CNc1ccc(F)c(S(=O)(=O)Nc2nc(-c3c(C)cccc3C(F)(F)F)c(-c3cccc(OCCC(C)(C)C)c3)s2)c1 [Example 389, N-[5-[3-(3,3-dimethylbutoxy)phenyl]-4-[2-methyl-6-(trifluoromethyl)phenyl]-1,3-thiazol-2-yl]-2-fluoro-5-(methylamino)benzenesulfonamide]
TECC AUC vs. DMSO @ 3 uM: A (“A” refers to AUC > 5)

SMILES: COC(=O)C1CCCC(Nc2cccc(S(=O)(=O)Nc3nc(-c4c(C)cccc4C)c(-c4cccc(OCCC(C)(C)C)c4)s3)n2)C1 (stereo not shown) [Example 435, methyl 3-[[6-[[5-[3-(3,3-dimethylbutoxy)phenyl]-4-(2,6-dimethylphenyl)-1,3-thiazol-2-yl]sulfamoyl]pyridin-2-yl]amino]cyclohexane-1-carboxylate]
TECC AUC vs. DMSO @ 3 uM: A (“A” refers to AUC > 5)

SMILES: CC(C)c1ccccc1-c1nc(NS(=O)(=O)c2cccc(N)c2)sc1-c1cccc(OCC(F)(F)C(C)(C)C)c1 [Example 490, 3-amino-N-[5-[3-(2,2-difluoro-3,3-dimethylbutoxy)phenyl]-4-(2-propan-2-ylphenyl)-1,3-thiazol-2-yl]benzenesulfonamide]
TECC AUC vs. DMSO @ 3 uM: B (“B” refers to AUC 2-5)

SMILES: Cc1cccc(C)c1-c1nc(NS(=O)(=O)c2cn(C)nc2C)sc1N1CCOC2(CCC(OC(F)(F)F)C2)C1 (stereo not shown) [Example 491, N-[4-(2,6-dimethylphenyl)-5-[3-(trifluoromethoxy)-6-oxa-9-azaspiro[4.5]decan-9-yl]-1,3-thiazol-2-yl]-1,3-dimethylpyrazole-4-sulfonamide]
TECC AUC vs. DMSO @ 3 uM: B (“B” refers to AUC 2-5)

SMILES: Cc1cccc(C)c1-c1nc(NS(=O)(=O)c2cn(C)nc2C)sc1N1C[C@H](OC(C)(C)C)C[C@H]1C [Example 495, N-[4-(2,6-dimethylphenyl)-5-[(2R,4R)-2-methyl-4-[(2-methylpropan-2-yl)oxy]pyrrolidin-1-yl]-1,3-thiazol-2-yl]-1,3-dimethylpyrazole-4-sulfonamide]
TECC AUC vs. DMSO @ 3 uM: B (“B” refers to AUC 2-5)

— patent publication US20240002374A1, “5-MEMBERED HETEROARYLAMINOSULFONAMIDES FOR TREATING CONDITIONS MEDIATED BY DEFICIENT CFTR ACTIVITY” (Genzyme Corporation, priority 2019, published 2024)
